“Also recorded” adds a separate entry of the source.
Tests used:
[1] = system: anti-VP4 antibodies in plasmas or serums; assay: ELISA of plasmas/serums on wells coated with VP4 protein or VP4 peptides; assay type: binding, human; conditions: for Mean value of OD ratio (OD / OD of negative control), ELISA: diluted 1/50, antigen coated at 5 μg/ml, 490 nm; for OD in ELISA assay compared with the VP4 protein: 40 serums from patients and 40 controls
Procedure: 40 plasmas from non diabetic patients and 40 plasmas or serums from diabetic patients were assayed.
The VP4 protein or the 5 VP4 peptides, diluted at 5 μg/ml in PBS buffer pH=7.4, are coated in the wells of a microplate of 96 wells (FluoroMunc, MaxiSorp surface, NUNC, Danemark) at the rate of 100 μl/well. The plates are incubated for 1 hour at 37° C. under humid atmosphere, then left for 24 h at room temperature. After 3 washings with PBS buffer, the wells are saturated with 300 μl of saturation buffer for 1 hour at 37° C. under humid atmosphere, before washing 3 times with the washing buffer. Then 250 μl of post-coating buffer are added to each well and the plates are incubated for 24 h at room temperature, then stored at 4° C. until use.
The wells coated with the VP4 protein or the different peptides VP4 are washed 3 times with washing buffer in order to remove the post-coating solution. Then 100 μl of the plasmas or serums diluted to 1/50th in dilution buffer are added to different wells and the plates are incubated for 1 hour at 37° C. under humid atmosphere. Simultaneously, a negative control well containing 100 μl of dilution buffer is carried out. Then the wells are washed 3 times with the washing solution and 100 μl of secondary antibody solution are added to each well. After incubation for 1 h at 37° C. under humid atmosphere, the wells are washed 5 times with the washing solution and 100 μl of substrate solution are added to each well. The plates are incubated for 30 minutes at room temperature and in the dark. The coloured reaction is stopped by addition of 25 μl of H2SO4 2M (1M) per well and the plates are read in a plate reader at a wavelength of 490 nm.
ODs obtained for each serum with the VP4 protein and the different peptides VP4 were divided by the OD obtained with the negative control. The following Tables show the mean +/− standard deviation of the rates of OD obtained with the two series of assayed serums (Patient=diabetic patients, Control=not diabetic). (see FIGS. 8 à 10)

[2] = system: CVB4E2/plasma induced IFNα production by PBMCs; assay: CVB4E2/plasma induced IFNα production by PBMCs (DELFIA); assay type: cell-based, human
Procedure: (§1) VP4, H antigen or mock proteins were preincubated for 1 h at 37° C. at different concentrations with plasma from 5 healthy subjects diluted at optimal dilution (1/10 or 1/100 ). CVB3 or CVB4 were then added for 1 hour before incubating with PBMCs. […] On the contrary, the mock proteins isolated from non-infected Hep-2 cells have non effect on the IFNα production.
PBMCs separated from whole heparinated blood are distributed into microwells (plate of 96 wells), at the rate of 5 to 8.10^5 cell in 100 μl of supplemented RPMI medium by well. The infection of PBMC is made with a final volume of 100 μl of preparation in each well. After incubation for 48 h at 37° C. under a 5% CO2 atmosphere and 90% humidity, the supernatant is harvested and used immediately for IFNα dosage, or clarified by centrifugation for 10 minutes at 180×g and stored at −80° C. until dosage of the produced IFNα.
(§2) The concentration of the produced IFNα is determined with a sensitive and specific technique, the DELFIA method (Dissociation Enhanced Lanthanide FluoroImmmoAssay) (Rönnblom and al 1997).
The dosage of IFNα is performed following the DELFIA principle (Dissociation Enhanced Lanthanide FluoroImmunoAssay), based on a immunofluorescence in retarded phase method using antibodies binding IFNα of which one is labelled with europium. The use of an activation solution will release the europium conjugated with antibodies and emit a fluorescence proportional to the amount of produced IFNα and measured with a fluorometer (fluorometer LKB Wallac 1230 ARCOSO®, Turku, Finlande).
Monoclonal anti-IFNα antibodies LT 273 (5.4 mg/ml) and LT 293 (4.8 mg/ml) supplied by Dr Gunar Alm (Uppsala, Sweden) are coated to the bottom of the wells after an incubation for 12 hours at room temperature. These plates can be stored in a buffer at 4° C. or are used immediately. Standard samples of human IFNα are prepared with an “irrelevant” monoclonal mouse antibody IgG1 in order to establish the reference curve (10 measurements). The other samples to be analysed are added to each well (100 μl) with the dilution buffer and the “irrelevant” antibodies and incubated for 2 hours with gentle stirring at room temperature. The wells are washed 3 times with the washing solution. The antibody conjugated to europium (200 μl) is added to each well, left to incubate for 1 hour at room temperature with gentle stirring. The plate is washed 6 times with a washing solution. The activation solution (200 μl), added immediately after washing and left for 20 to 30 minutes for incubation in the well, causes a cleavage of the europium bound to the antibody fixed to IFNα, emitting a fluorescence measured with the fluorescence reader (LKB Wallac 1230 ARCUS®). The IFNα concentration will be calculated from the values of the measured fluorescence by means of the Graphpad program (San Diego, USA). The detection threshold of IFNα is of 0.5 IU/ml.
The plasma from a healthy donor (optimal dilution 1/10th or 1/100th) is pre-incubated for 1 hour at 37° C. with the recombinant VP4 protein of CVB4E2 (optimal concentration at 1 μg/ml). The whole is incubated again for one hour at 37° C. in the presence of the CVB4E2 virus (dilutions at 1/10th or 1/100th; viral titer at 10^13 TCID50/ml) then applied to the PBMCs, (5.10^5/well) to incubate for 48 hours.
In the same way, the plasma preparation preincubated for 1 hour and VP4 of CVB3 are incubated for 1 hour with CVB4E2 before infecting the PBMCs for 48 hours and determinating the amount of the produced IFNα.
The virus (CVB4E2 or CVB3) infected PBMCs in the presence of plasma are deemed to be positive controls of this experimentation. The negative controls are obtained with one well of PBMC alone, one well of virus CVB4B2 alone and one well of CVB3 alone.
The CVB4E2 induced IFNα production in cultures of PBMCs previously incubated in the presence of plasma from healthy subjects was measured. […]

[3] = system: CVB3/plasma induced IFNα production by PBMCs; assay: CVB3/plasma induced IFNα production by PBMCs (DELFIA); assay type: cell-based, human; conditions: protein preincubated 1 h at 37°C at different concentrations with plasma from healthy subjects, then CVB3, then PBMCs
Procedure: as §1
PBMCs separated from whole heparinated blood are distributed into microwells (plate of 96 wells), at the rate of 5 to 8.10^5 cell in 100 μl of supplemented RPMI medium by well. The infection of PBMC is made with a final volume of 100 μl of preparation in each well. […]
as §2
The dosage of IFNα is performed following the DELFIA principle (Dissociation Enhanced Lanthanide FluoroImmunoAssay), based on a immunofluorescence in retarded phase method using antibodies binding IFNα of which one is labelled with europium. The use of an activation solution will release the europium conjugated with antibodies and emit a fluorescence proportional to the amount of produced IFNα and measured with a fluorometer (fluorometer LKB Wallac 1230 ARCOSO®, Turku, Finlande). […]

[4] = Patient = 40 serums of diabetic patients
[5] = Control = 40 serums of non diabetic patients

Compound	Mean value of OD ratio (OD / OD of negative control), ELISA [1, 4]	OD in ELISA assay compared with the VP4 protein [1]	Mean value of OD ratio (OD / OD of negative control), ELISA [1, 5]	also measured
CC(C)[C@H](NC(=O)[C@H](CC(=O)O)NC(=O)[C@H](CCCCN)NC(=O)[C@@H](NC(=O)[C@@H]1CCCN1C(=O)[C@H](CCC(=O)O)NC(=O)[C@@H](NC(=O)[C@H](Cc1ccccc1)NC(=O)[C@H](CCCCN)NC(=O)[C@H](CO)NC(=O)[C@@H]1CCCN1C(=O)[C@H](CC(=O)O)NC(=O)[C@H](CCC(N)=O)NC(=O)[C@@H](NC(=O)[C@H](Cc1ccccc1)NC(=O)[C@H](CC(=O)O)NC(=O)[C@H](CCC(N)=O)NC(=O)[C@H](CCCNC(=N)N)NC(=O)[C@H](CC(N)=O)NC(=O)[C@H](C)NC(=O)[C@H](CO)NC(=O)[C@H](CC(N)=O)NC(=O)[C@H](CO)NC(=O)[C@H](C)NC(=O)[C@H](C)NC(=O)[C@H](CC(=O)O)NC(=O)[C@H](CCCCN)NC(=O)[C@H](Cc1ccc(O)cc1)NC(=O)[C@H](Cc1ccc(O)cc1)NC(=O)[C@@H](N)CC(N)=O)[C@@H](C)O)[C@@H](C)O)C(C)C)C(N)=O [VP4-P5]	0.968			
CSCC[C@H](N)C(=O)NCC(=O)N[C@@H](C)C(=O)N[C@@H](CCC(N)=O)C(=O)N[C@H](C(=O)N[C@@H](CO)C(=O)N[C@H](C(=O)N[C@@H](CCC(N)=O)C(=O)N[C@@H](CCCCN)C(=O)N[C@H](C(=O)NCC(=O)N[C@@H](C)C(=O)N[C@@H](Cc1c[nH]cn1)C(=O)N[C@@H](CCC(=O)O)C(=O)N[C@H](C(=O)N[C@@H](CO)C(=O)N[C@@H](CC(C)C)C(=O)N[C@@H](CO)C(=O)N[C@@H](C)C(=O)N[C@@H](CO)C(N)=O)[C@@H](C)O)[C@@H](C)O)[C@@H](C)O)C(C)C [VP4-P1]	1.450	comparable to the VP4 protein		
CC[C@H](C)[C@H](NC(=O)[C@H](CC(N)=O)NC(=O)[C@@H](NC(=O)[C@H](Cc1ccc(O)cc1)NC(=O)[C@H](Cc1c[nH]cn1)NC(=O)[C@@H](NC(=O)[C@@H](NC(=O)[C@H](CO)NC(=O)[C@H](CC(N)=O)NC(=O)CNC(=O)[C@H](CO)NC(=O)[C@H](C)NC(=O)[C@H](CO)NC(=O)[C@H](CC(C)C)NC(=O)[C@H](CO)NC(=O)[C@@H](NC(=O)[C@H](CCC(=O)O)NC(=O)[C@H](Cc1c[nH]cn1)NC(=O)[C@H](C)NC(=O)CN)[C@@H](C)O)[C@@H](C)CC)[C@@H](C)CC)[C@@H](C)O)C(N)=O [VP4-P2]	2.373	comparable to the VP4 protein; also recorded: same behaviour as VP4; also recorded: recognizes a higher level of antibodies with diabetics as with non-diabetics	0.691	Mean value of OD ratio (OD / OD of negative control), ELISA ([1]; Patient = 40 serums of diabetic patients, listed as Peptide P2): 2.376; effect on IFNα production during infection of PBMCs with CVB4E2 in the presence of plasma ([2]; plasma 1/100th, peptide at three concentrations (FIG. 11, tracks 7 to 9)): diminution of the dose-dependent IFNα production
VP4CVB4: natural structural internal protein VP4 dissociated and purified from coxsackievirus CVB4 E2	1.964		0.711	effect on CVB3/plasma induced IFNα production [3]: no change; effect on CVB4/plasma induced IFNα production ([2]; protein preincubated 1 h at 37°C at different concentrations with plasma from healthy subjects, then CVB4, then PBMCs): Decrease
CC[C@H](C)[C@H](NC(=O)[C@H](CC(N)=O)NC(=O)[C@@H](NC(=O)[C@H](Cc1ccc(O)cc1)NC(=O)[C@H](Cc1c[nH]cn1)NC(=O)[C@@H](NC(=O)[C@@H](NC(=O)[C@H](CO)NC(=O)[C@H](CC(N)=O)NC(=O)CN)[C@@H](C)CC)[C@@H](C)CC)[C@@H](C)O)C(=O)N[C@@H](CC(N)=O)C(=O)N[C@@H](Cc1ccc(O)cc1)C(=O)N[C@@H](Cc1ccc(O)cc1)C(=O)N[C@@H](CCCCN)C(=O)N[C@@H](CC(=O)O)C(=O)N[C@@H](C)C(=O)N[C@@H](C)C(=O)N[C@@H](CO)C(=O)N[C@@H](CC(N)=O)C(=O)N[C@@H](CO)C(N)=O [VP4-P3]	0.712			
H-SKFTEPVKDVMIKSLPALN-NH2 [VP4-P6, NH2-SKFTEPVKDVMIKSLPALN-CONH2]	0.600			

Reference: patent US7534558B2, “In vitro diagnostic test for enterovirus infections” (Universite de Lille 2 Droit Et Sante, priority 2003, dated 2009)
